This passage reports IC50 results from US8354436B2 (4SC Discovery GmbH, priority 2011, dated 2013).

Where two headings read alike, the source gives them in different places.

What all share (type): cell-based
For experiment [1], the system named is PBMC from healthy human donors. Briefly: T cell proliferation assay (PHA-stimulated human PBMC, BrdU ELISA). The conditions noted are these: PHA-stimulated human PBMC, 48 hours, column D, read-out: IC50 (Tcell proliferation). The procedure, abridged:
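Proliferation was quantified by BrdU ELISA 48 hours after starting culture of 1×10⁵ human PBMC per well with test compound and 2 μg/ml phytohaemagglutinin. Cells came from healthy donors via Ficoll separation and were kept in RPMI1640 with 10% dialysed heat-inactivated FCS.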
On the technique in general: Uptake of a labelled nucleoside into DNA is a usual measure of proliferation.

For experiment [2], the system named is IFN-γ. Briefly: IFN-γ production by PHA-stimulated human PBMC (OptEIA human IFN-g ELISA). The conditions noted are these: 48 hours. The procedure, abridged:
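PBMC from healthy donors, 1×10^5/well, 2 μg/ml PHA + compound, 48 h. Supernatant cytokine by Luminex bead assay or ELISA as listed. Screen at 10/1/0.1/0.01 μM; IC50 via semilog titration.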
For orientation: An ELISA detects its analyte on a solid surface through an enzyme-linked reagent.

In experiment [3] the test system is IL-17FF. The experiment can be described thus: IL-17FF production by PHA-stimulated human PBMC (human IL-17F ELI-Pair). The conditions noted are these: 48 hours. The method, then: Analysis of Proliferation of and Cytokine Production by Human PBMC Stimulated with PHA
Peripheral blood mononuclear cells (PBMC) from healthy human donors were purified using Accuspin™ System-Histopaque-1077 (Sigma) according to the protocol recommended by the manufacturer. Purified PBMC were then washed twice with phosphate-buffered saline (PBS) and resuspended in RPMI1640 culture medium supplemented with 10% dialyzed heat inactivated fetal calf serum, 1.5 mM L-glutamine, 100 U penicillin/ml, and […] (all from PAN Biotech, Aidenbach, Germany). For stimulation, PBMC were seeded at 1×10^5 cells/well, activated with 2 μg/ml phytohaemagglutinin (PHA, Sigma) and incubated with the test compounds for 48 hours. IL-17A, IL-17F and INF-γ were then determined in the culture supernatant using a Luminex BioPlex system, following the manufacturer's instructions (BioRad, Munich, Germany). For screening, compounds were used at 10, 1, 0.1 and 0.01 μM. To determine the IC50, compounds were titrated semilogarithmically.
Cytokines were determined in the aforementioned culture supernatant using the following methods: IL-17AA/AF was measured using the Luminex BioPlex system (BioRad, Munich, Germany); IL-17AA using the human homodimer IL-17A ELISA Ready Set Go Kit from eBioscience (Frankfurt, Germany); IL-17FF using the human IL-17F ELI-Pair from Hölzel DiagnosticaGmBH (Köln, Germany); and IFN-γ using the OptEIA human IFN-g ELISA from BD Bioscience (Heidelberg, Germany), all following the manufacturer's instructions.

Setting [4] is: PHA-stimulated human PBMC, column C, read-out: IC50 (IFNγ).
Where [5] appears, read: PHA-stimulated human PBMC, column B, read-out: IC50 (IL-17FF).

As for `CCOC(=O)c1c(-c2ccncc2F)noc1-c1cnn(-c2cccc(Cl)c2)c1C(F)(F)F` [IB-4, ethyl 5-(1-(3-chlorophenyl)-5-(trifluoromethyl)-1H-pyrazol-4-yl)-3-(3-fluoropyridin-4-yl)isoxazole-4-carboxylate], the IC50 in experiment [1] was in the range of 1000 to 10000 nM; in experiment [2] (setting [4]) it was 100 to 1000 nM; in experiment [3] (setting [5]) it was 100 to 1000 nM.
In the case of `CCOC(=O)c1c(-c2onc(-c3c(F)cccc3Cl)c2C(=O)OC)cnn1-c1cccc(Cl)c1Cl` [Example I-9, methyl 3-(2-chloro-6-fluorophenyl)-5-(1-(2,3-dichlorophenyl)-5-(ethoxycarbonyl)-1H-pyrazol-4-yl)isoxazole-4-carboxylate], the IC50 in experiment [1] and in experiment [3] (setting [5]) was 1000 to 10000 nM each time.
`NS(=O)(=O)c1cccc(-n2ncc(-c3onc(-c4c(F)cccc4Cl)c3C(=O)N3CCCO3)c2C(F)(F)F)c1` [IB-65, 3-(4-(3-(2-chloro-6-fluorophenyl)-4-(isoxazolidine-2-carbonyl)isoxazol-5-yl)-5-(trifluoromethyl)-1H-pyrazol-1-yl)benzenesulfonamide]: the IC50 in experiment [2] (setting [4]) and in experiment [3] (setting [5]) was 1000 to 10000 nM in each case.
Take `Fc1cc(F)c(F)c(-n2ncc(-c3onc(-c4c(F)cccc4Cl)c3Br)c2C(F)(F)F)c1F` [Example I-144, 4-bromo-3-(2-chloro-6-fluorophenyl)-5-(1-(2,3,5,6-tetrafluorophenyl)-5-(trifluoromethyl)-1H-pyrazol-4-yl)isoxazole]: the IC50 in experiment [2] (setting [4]) and in experiment [3] (setting [5]) was 1000 to 10000 nM in each case.
Take `CNC(=O)c1c(-c2c(F)cccc2Cl)noc1-c1cnn(-c2ccccc2OC)c1C(F)(F)F` [Example I-60, 3-(2-chloro-6-fluorophenyl)-5-(1-(2-methoxyphenyl)-5-(trifluoromethyl)-1H-pyrazol-4-yl)-N-methylisoxazole-4-carboxamide]: the IC50 in experiment [2] (setting [4]) and in experiment [3] (setting [5]) was 1000 to 10000 nM in each case.
`CCOC(=O)c1c(-c2c(F)cccc2Cl)noc1-c1cnn(Cc2ccccn2)c1C(F)(F)F` [IB-104, ethyl 3-(2-chloro-6-fluorophenyl)-5-(1-(pyridin-2-ylmethyl)-5-(trifluoromethyl)-1H-pyrazol-4-yl)isoxazole-4-carboxylate]: the IC50 in experiment [2] (setting [4]) and in experiment [3] (setting [5]) was 1000 to 10000 nM throughout.
Take `CCOC(=O)c1c(-c2ccc(Cl)cc2)noc1-c1cnn(-c2cccc(Cl)c2)c1C(F)(F)F` [Example I-77, ethyl 3-(4-chlorophenyl)-5-(1-(3-chlorophenyl)-5-(trifluoromethyl)-1H-pyrazol-4-yl)isoxazole-4-carboxylate]: the IC50 in experiment [1] and in experiment [3] (setting [5]) was 1000 to 10000 nM in each case.
For `COC(=O)c1c(-c2c(F)cccc2Cl)noc1-c1cnn(-c2ccc(S(N)(=O)=O)cc2)c1C(F)(F)F` [Example I-86, methyl 3-(2-chloro-6-fluorophenyl)-5-(1-(4-sulfamoylphenyl)-5-(trifluoromethyl)-1H-pyrazol-4-yl)isoxazole-4-carboxylate], the IC50 in experiment [2] (setting [4]) and in experiment [3] (setting [5]) was 1000 to 10000 nM each time.
For the molecule `CC(=O)Nc1cccc(-n2ncc(-c3onc(-c4c(F)cccc4Cl)c3-c3nnco3)c2C(F)(F)F)c1` [Example B-13, N-(3-(4-(3-(2-chloro-6-fluorophenyl)-4-(1,3,4-oxadiazol-2-yl)isoxazol-5-yl)-5-(trifluoromethyl)-1H-pyrazol-1-yl)phenyl)acetamide], the IC50 in experiment [2] (human PBMC, 2 μg/ml PHA, read-out: C: IC50 (IFNγ)) fell in the range of 1000 to 10000 nM; in experiment [3] (human PBMC, 2 μg/ml PHA, read-out: B: IC50 (IL-17FF)) it was 1000 to 10000 nM.
On to `O=CNc1c(-c2c(F)cccc2Cl)noc1-c1cnn(-c2cccc(Cl)c2)c1C(F)(F)F` [IB-48, N-(3-(2-chloro-6-fluorophenyl)-5-(1-(3-chlorophenyl)-5-(trifluoromethyl)-1H-pyrazol-4-yl)isoxazol-4-yl)formamide], for which the IC50 in experiment [1] and in experiment [3] (setting [5]) was 1000 to 10000 nM throughout.
For the molecule `CN(C)C(=O)c1c(-c2c(F)cccc2Cl)noc1-c1cnn(-c2ccccc2F)c1C(F)(F)F` [Example I-20, 3-(2-chloro-6-fluorophenyl)-5-(1-(2-fluorophenyl)-5-(trifluoromethyl)-1H-pyrazol-4-yl)-N,N-dimethylisoxazole-4-carboxamide], the IC50 in experiment [2] (setting [4]) and in experiment [3] (setting [5]) was 1000 to 10000 nM in each case.
For the molecule `COc1cc(OC)c(CNC(=O)c2c(-c3c(F)cccc3Cl)noc2-c2cnn(-c3ccccc3F)c2C(F)(F)F)c(OC)c1` [Example I-2, 3-(2-chloro-6-fluorophenyl)-5-(1-(2-fluorophenyl)-5-(trifluoromethyl)-1H-pyrazol-4-yl)-N-(2,4,6-trimethoxyben-zyl)isoxazole-4-carboxamide], the IC50 in experiment [2] (setting [4]) and in experiment [3] (setting [5]) was 1000 to 10000 nM throughout.
For the molecule `CNC(=O)c1c(-c2c(F)cccc2Cl)noc1-c1cnn(-c2cc(F)cc(F)c2)c1C(F)(F)F` [Example I-58, 3-(2-chloro-6-fluorophenyl)-5-(1-(3,5-difluorophenyl)-5-(trifluoromethyl)-1H-pyrazol-4-yl)-N-methylisoxazole-4-carboxamide], the IC50 in experiment [2] (setting [4]) was in the range of 100 to 1000 nM; in experiment [3] (setting [5]), 1000 to 10000 nM.
For the molecule `CNC(=O)c1c(-c2c(F)cccc2Cl)noc1-c1cnn(CC(C)C)c1C(F)(F)F` [Example I-37, 3-(2-chloro-6-fluorophenyl)-5-(1-isobutyl-5-(trifluoromethyl)-1H-pyrazol-4-yl)-N-methylisoxazole-4-carboxamide], the IC50 in experiment [2] (setting [4]) fell in the range of 1000 to 10000 nM; in experiment [3] (setting [5]), 100 to 1000 nM.
`CON(C)C(=O)c1c(-c2c(F)cccc2Cl)noc1-c1cnn(-c2cccc(NC(C)=O)c2)c1C(F)(F)F` [IB-87, 5-(1-(3-acetamidophenyl)-5-(trifluoromethyl)-1H-pyrazol-4-yl)-3-(2-chloro-6-fluorophenyl)-N-methoxy-N-methylisoxazole-4-carboxamide]: the IC50 in experiment [2] (setting [4]) and in experiment [3] (setting [5]) was 1000 to 10000 nM in each case.
In the case of `O=C(c1c(-c2c(F)cccc2Cl)noc1-c1cnn(-c2ccccc2F)c1C(F)(F)F)N1CCCC1` [Example I-22, (3-(2-chloro-6-fluorophenyl)-5-(1-(2-fluorophenyl)-5-(trifluoromethyl)-1H-pyrazol-4-yl)isoxazol-4-yl)(pyrrolidin-1-yl)methanone], the IC50 in experiment [2] (setting [4]) and in experiment [3] (setting [5]) was 100 to 1000 nM in each case.
For the molecule `CNC(=O)c1c(-c2cccc(F)c2)noc1-c1cnn(-c2cccc(F)c2)c1C(F)(F)F` [Example I-105, 3-(3-fluorophenyl)-5-(1-(3-fluorophenyl)-5-(trifluoromethyl)-1H-pyrazol-4-yl)-N-methylisoxazole-4-carboxamide], the IC50 in experiment [2] (setting [4]) and in experiment [3] (setting [5]) was 1000 to 10000 nM each time.
For `CCOC(=O)c1c(-c2c(Cl)cncc2Cl)noc1-c1cnn(-c2cccc(F)c2)c1C(F)(F)F` [IB-103, ethyl 3-(3,5-dichloropyridin-4-yl)-5-(1-(3-fluorophenyl)-5-(trifluoromethyl)-1H-pyrazol-4-yl)isoxazole-4-carboxylate], the IC50 in experiment [2] (setting [4]) and in experiment [3] (setting [5]) was 1000 to 10000 nM each time.
With `COC(=O)c1sccc1-n1ncc(-c2onc(-c3c(F)cccc3Cl)c2C(=O)OC)c1C(F)(F)F` [Example I-14, methyl 3-(2-chloro-6-fluorophenyl)-5-(1-(2-(methoxycarbonyl)thiophen-3-yl)-5-(trifluoromethyl)-1H-pyrazol-4-yl)isoxazole-4-carboxylate], the IC50 in experiment [2] (setting [4]) was in the range of 100 to 1000 nM; in experiment [3] (setting [5]), 10 to 100 nM.
